Among the data in patent publication US20210023238A1, “TRIPTOLIDE ANTIBODY CONJUGATES” (City of Hope, priority 2019, published 2021) are IC50 values, retold here.

What all share (type): cell-based
In one assay the test system is A549 NSCLC cells. Kind of assay: CCK-8 cell proliferation / cytotoxicity, A549. To be noted: Homo sapiens, A549 (EGFR+++), 72 h. On the procedure: (§1) H520, H1299, and A549 cells were plated at a density of 3×10^3 cells/well in 96-well multiplates. […] Then after, 10 ul of CCK-8 solution was added to each well and further developed for 2 h. The absorbance values were detected at a wavelength of 450 nm using a Bio-Rad microplate reader. The cell viability was calculated by the optical density (OD) values of treated groups/OD values of control groups (Vehicle/PBS)×100%.

A further assay relates to H520 NSCLC cells. Nature of the assay: CCK-8 cell proliferation / cytotoxicity, H520. The conditions noted are these: Homo sapiens, NCI-H520, H520 (EGFR+/-), 72 h. On the procedure: as §1
Another assay has as its system H1299 NSCLC cells. Kind of assay: CCK-8 cell proliferation / cytotoxicity, H1299. To be noted: Homo sapiens, NCI-H1299, H1299 (EGFR+++), 72 h. On the procedure: as §1

`CC(C)[C@]12O[C@H]1[C@@H]1O[C@]13[C@]1(O[C@H]1C[C@H]1C4=C(CC[C@@]13C)C(=O)OC4)[C@@H]2O` [TRP, Triptolide]: the figures for the IC50 in the assay with A549 NSCLC cells, in the assay on H520 NSCLC cells and with H1299 NSCLC cells were 25 to 50 nM, 3.13 nM and 6.25 to 12.5 nM, respectively.
